Data set [1] can be described thus: Photodecomposition of Al and Si phthalocyanines in toluene in the presence of squalene under white light. It is filed as physicochemical. The settings on record: toluene ~9 μM, squalene 1:1000 mole ratio, white light 1.2 kJ/s/m^2, air. The procedure:
The beam intensity was checked before each measurement.
Solutions for the photodecomposition experiments were prepared as follows.

Data set [2] in a line: Photodecomposition of phthalocyanines in toluene under white light, no added radical source. The note with it: for photostability (in words): white light, toluene.
Protocol: The distance between the cuvette face and the lamp filament was 30 cm. Determination of the beam intensity at the cuvette face was made with a powermeter (Powermax, pm10, Coherent, Santa Clara, Calif.). The beam intensity was checked before each measurement.
Solutions for the photodecomposition experiments were prepared as follows. […] This assumption was justified on the basis that all of the silicon phthalocyanines studied contained simple, unsubstituted phthalocyanine rings. The extinction coefficients of the aluminum phthalocyanines were assumed to be 2.3×10^5, the extinction coefficient of AlPcOSi(CH3)2(CH2)3N(CH3)2, Pc 1.
The absorbance of the Q band of the solution, A, was determined with a spectrophotometer (Lambda 25, Perkin Elmer, Shelton, Conn.; fused silica cuvettes, 1.00 cm, 3.5 mL, Fisher Scientific). From A, ε, the cuvette path length, b, and Beer's law, the concentration of the solution, c, was determined. The solution was then diluted with toluene to a concentration of 9.2 μM. To verify that this was the concentration of the solution, its absorbance was measured again.
In a typical determination, the solution (3.00 mL) was placed in a cuvette (1.00 cm, 3.5 mL, Fisher Scientific, Pittsburgh, Pa.) and its absorbance was measured with the spectrometer (Lambda 25) before irradiation and at 2, 4, 6 and 8 h.
where A0 is the absorbance of the solution at time 0, and At is the absorbance at time t.
[3] abbreviates: time 2 h, radiation 86 kJ/mol × 10^−6.
Setting [4] is: time 4 h, radiation 172 kJ/mol × 10^−6.
Setting [5] is: time 6 h, radiation 258 kJ/mol × 10^−6.
Where [6] appears, read: time 8 h, radiation 344 kJ/mol × 10^−6.
The mark [7] stands for this setting: time 0 h, toluene ~9 μM, no added alkene, white light 1.2 kJ/s/m^2.
Where [8] appears, read: time 2 h, radiation 86 kJ/mol × 10^−6, toluene ~9 μM, no added alkene, white light 1.2 kJ/s/m^2.
Setting [9] is: time 4 h, radiation 172 kJ/mol × 10^−6, toluene ~9 μM, no added alkene, white light 1.2 kJ/s/m^2.
The mark [10] stands for this setting: time 6 h, radiation 258 kJ/mol × 10^−6, toluene ~9 μM, no added alkene, white light 1.2 kJ/s/m^2.
The mark [11] stands for this setting: time 8 h, radiation 344 kJ/mol × 10^−6, toluene ~9 μM, no added alkene, white light 1.2 kJ/s/m^2.

Values joined by “and” are separate entries in the source; they are usually repeats but may differ in a detail not shown here. Equal values may be shown once.

As to `CC[Si](CC)(CC)O[Si]1(O[Si](CC)(CC)CC)n2c3c4ccccc4c2N=C2N=C(N=c4c5ccccc5c(n41)=NC1=NC(=N3)c3ccccc31)c1ccccc12` [Pc 281, SiPc(OSiEt3)2], the “decomp (%)” value is listed as 0% in data set [1] (time 0 h); 5% in data set [1] (setting [3]); 9% in data set [1] (setting [4]); 13% in data set [1] (setting [5]); 17% in data set [1] (setting [6]).

`CCC[Si](CCC)(CCC)O[Si]1(O[Si](CCC)(CCC)CCC)n2c3c4ccccc4c2N=C2N=C(N=c4c5ccccc5c(n41)=NC1=NC(=N3)c3ccccc31)c1ccccc12` [Pc 282, SiPc(OSiPr3)2]: the “decomp (%)” value in data set [1] (time 0 h) came to 0%; in data set [1] (setting [3]), 3%; in data set [1] (setting [4]) it was 4%; in data set [1] (setting [5]) it was 6%; in data set [1] (setting [6]), 7%.

As for `CN(C)CCCCCC[Si](C)(C)O[Si]1(O[Si](C)(C)CCCCCCN(C)C)n2c3c4ccccc4c2N=C2N=C(N=c4c5ccccc5c(n41)=NC1=NC(=N3)c3ccccc31)c1ccccc12` [Pc 85, SiPc[OSi(CH3)2(CH2)6N(CH3)2]2], the “decomp (%)” value in data set [2] (setting [7]) came out at 0%; in data set [2] (setting [8]), 5%; in data set [2] (setting [9]), 5%; in data set [2] (setting [10]), 5%; in data set [2] (setting [11]), 5%.

With `CCCCCCCCCCCCCCCCCC(=O)O.CCCCCCCCCCCCCCCCCC(=O)O.CN(C)CCC[Si](C)(C)O[Si]1(O[Si](C)(C)CCCN(C)C)n2c3c4ccccc4c2N=C2N=C(N=c4c5ccccc5c(n41)=NC1=NC(=N3)c3ccccc31)c1ccccc12` [Pc 287, SiPc[OSi(CH3)2(CH2)3NH(CH3)2]2^2+[OC(O)(CH2)17CH3]2^−], the “decomp (%)” value in data set [2] (setting [7]) amounted to 0%; in data set [2] (setting [8]) it was 19%; in data set [2] (setting [9]) it was 20%; in data set [2] (setting [10]), 21%; in data set [2] (setting [11]) it was 21%.

Take `CCCCCC[Si](CCCCCC)(CCCCCC)O[Si]1(O)n2c3c4ccccc4c2N=C2N=C(N=c4c5ccccc5c(n41)=NC1=NC(=N3)c3ccccc31)c1ccccc12` (stereo not shown) [Pc 252, SiPc(OSiHx3)(OH)]: the “decomp (%)” value in data set [1] (time 0 h) is reported as 0%; in data set [1] (setting [3]), 16%; in data set [1] (setting [4]), 26%; in data set [1] (setting [5]), 34%; in data set [1] (setting [6]) it was 42%.

As for `C=CCCCC[Si](C)(C)O[Si]1(O[Si](C)(C)CCCCC=C)n2c3c4ccccc4c2N=C2N=C(N=c4c5ccccc5c(n41)=NC1=NC(=N3)c3ccccc31)c1ccccc12` [Pc 270, SiPc[OSi(CH3)2(CH2)4CH═CH2]2], the “decomp (%)” value in data set [2] (setting [7]) turned out to be 0%; in data set [2] (setting [8]), 1%; in data set [2] (setting [9]) it was 2%; in data set [2] (setting [10]), 2%; in data set [2] (setting [11]), 3%.

Consider SiPc[OC(O)(CH2)16CH3]2 [Pc 294], for which the “decomp (%)” value in data set [2] (setting [7]) was determined as 0%; in data set [2] (setting [8]), 1%; in data set [2] (setting [9]), 1%; in data set [2] (setting [10]), 1%; in data set [2] (setting [11]), 2%.

As to `C[Si](C)(CCCI)O[Si]1(O)n2c3c4ccccc4c2N=C2N=C(N=c4c5ccccc5c(n41)=NC1=NC(=N3)c3ccccc31)c1ccccc12` (stereo not shown) [Pc 58, SiPc[OSiMe2(CH2)3I](OH)], the “decomp (%)” value in data set [1] (time 0 h) was determined as 0%; in data set [1] (setting [3]) it was 12%; in data set [1] (setting [4]), 23%; in data set [1] (setting [5]), 34%; in data set [1] (setting [6]), 44%.

Consider `CN(C)CCC[Si](C)(C)O[Si]1(O[Si](C)(C)CCCN(C)C)n2c3c4ccccc4c2N=C2N=C(N=c4c5ccccc5c(n41)=NC1=NC(=N3)c3ccccc31)c1ccccc12` [Pc 12, SiPc[OSi(CH3)2(CH2)3N(CH3)2]2], for which the “decomp (%)” value in data set [2] (setting [7]) was 0%; in data set [2] (setting [8]) it was 19% and 18%; in data set [2] (setting [9]), 20% and 19%; in data set [2] (setting [10]), 21%; in data set [2] (setting [11]) it was 21%.

As to `C[SiH2]O[Si]1(O[SiH2]C)n2c3c4ccccc4c2N=C2N=C(N=c4c5ccccc5c(n41)=NC1=NC(=N3)c3ccccc31)c1ccccc12` (stereo not shown) [Pc 283, SiPc(OSiH2Me)2], the “decomp (%)” value in data set [1] (time 0 h) stood at 0%; in data set [1] (setting [3]) it was 24%; in data set [1] (setting [4]), 44%; in data set [1] (setting [5]), 63%; in data set [1] (setting [6]), 77%.

`CSCCC[Si](C)(C)O[Si]1(O[Si](C)(C)CCCSC)n2c3c4ccccc4c2N=C2N=C(N=c4c5ccccc5c(n41)=NC1=NC(=N3)c3ccccc31)c1ccccc12` [Pc 97, SiPc[OSi(CH3)2(CH2)3SCH3]2]: the “decomp (%)” value in data set [2] (setting [7]) was 0%; in data set [2] (setting [8]), 41%; in data set [2] (setting [9]), 42%; in data set [2] (setting [10]) it was 43%; in data set [2] (setting [11]) it was 44%.

With “SiPc[OC(O)(CH2)6(CH2CH═CH)3CH2CH3]z [Pc 297]”, in data set [2], the “decomp (%)” value is given as 0 3 5 6 9%.

Consider AlPcOSi(CH3)2(CH2)3N(CH3)2 [Pc 1], for which the “decomp (%)” value in data set [2] (setting [7]) came out at 0%; in data set [2] (setting [8]) it was 27%; in data set [2] (setting [9]) it was 39%; in data set [2] (setting [10]) it was 46%; in data set [2] (setting [11]), 49%. For the same compound, the “photostability (in words)” value in data set [2] (no added alkene) is on record as “low photostability”.

Turning to `C=CC[Si](C)(C)O[Si]1(O[Si](C)(C)CC=C)n2c3c4ccccc4c2N=C2N=C(N=c4c5ccccc5c(n41)=NC1=NC(=N3)c3ccccc31)c1ccccc12` [Pc 271, SiPc[OSi(CH3)2CH2CH═CH2]2], the “decomp (%)” value is listed as 0% in data set [2] (setting [7]); 6% in data set [2] (setting [8]); 10% in data set [2] (setting [9]); 14% in data set [2] (setting [10]); 16% in data set [2] (setting [11]).

Consider `CCCCCC[Si](CCCCCC)(CCCCCC)[O][Al]1[n]2c3c4ccccc4c2N=c2c4ccccc4c([n]21)=NC1=NC(=NC2=NC(=N3)c3ccccc32)c2ccccc21` [Pc 286, AlPcOSiHx3], for which the “decomp (%)” value in data set [1] (time 0 h) was 0%; in data set [1] (setting [3]), 10%; in data set [1] (setting [4]), 17%; in data set [1] (setting [5]) it was 23%; in data set [1] (setting [6]), 29%.

Consider `CCC[Si](CCC)(CCC)[O][Al]1[n]2c3c4ccccc4c2N=C2N=C(N=c4c5ccccc5c([n]41)=NC1=NC(=N3)c3ccccc31)c1ccccc12` [Pc 285, AlPcOSiPr3], for which the “decomp (%)” value in data set [1] (time 0 h) is 0%; in data set [1] (setting [3]), 8%; in data set [1] (setting [4]) it was 16%; in data set [1] (setting [5]), 23%; in data set [1] (setting [6]), 30%.

As to `CC1=C(/C=C/C(C)=C/C=C/C(C)=C/C(=O)O[Si]2(OC(=O)/C=C(C)/C=C/C=C(C)/C=C/C3=C(C)CCCC3(C)C)n3c4c5ccccc5c3N=C3N=C(N=c5c6ccccc6c(n52)=NC2=NC(=N4)c4ccccc42)c2ccccc23)C(C)(C)CCC1` (stereo not shown) [Pc 301, SiPc[OC(O)(CH═C(CH3)CH═CH)2C6H6(CH3)3]2], the “decomp (%)” value is recorded as 0% in data set [2] (setting [7]); 19% in data set [2] (setting [8]); 25% in data set [2] (setting [9]); 28% in data set [2] (setting [10]); 32% in data set [2] (setting [11]).

With `CCCCCC[Si](CCCCCC)(CCCCCC)O[Si]1(O[Si](CCCCCC)(CCCCCC)CCCCCC)n2c3c4ccccc4c2N=C2N=C(N=c4c5ccccc5c(n41)=NC1=NC(=N3)c3ccccc31)c1ccccc12` [Pc 162, SiPc(OSiHx3)2], the “decomp (%)” value in data set [1] (time 0 h) came to 0%; in data set [1] (setting [3]) it was 9%; in data set [1] (setting [4]), 14%; in data set [1] (setting [5]), 20%; in data set [1] (setting [6]), 26%.

On to `COCCC[Si](C)(C)O[Si]1(O[Si](C)(C)CCCOC)n2c3c4ccccc4c2N=C2N=C(N=c4c5ccccc5c(n41)=NC1=NC(=N3)c3ccccc31)c1ccccc12` [Pc 92, SiPc[OSi(CH3)2(CH2)3OCH3]2], for which the “decomp (%)” value in data set [2] (setting [7]) is given as 0%; in data set [2] (setting [8]), 1%; in data set [2] (setting [9]) it was 1%; in data set [2] (setting [10]), 1%; in data set [2] (setting [11]) it was 1%.

For “SiPc[OCH2CH═C(CH3)(CH2)2CH═C(CH3)2]2 [Pc 302]”, the “stability in the dark” value in data set [2] (in the dark) was “stable in the dark”. The “decomp (%)” value in data set [2] (setting [7]) amounted to 0%; in data set [2] (setting [8]), 19%; in data set [2] (setting [9]), 60%; in data set [2] (setting [10]) it was 74%; in data set [2] (setting [11]), 81%.

On to “SiPc[OC(O)(CH2)3(CH2CH═CH)3(CH2)4CH3]2 [Pc 298]”, for which, in data set [2], the “decomp (%)” value is given as 0 12 21 27 33% and the “decomposition rate relative to bis(α-linolenoxy)silicon phthalocyanine” value is “approximately twice as fast”.

Take `C[Si](C)(CCCN(c1ccccc1)c1ccccc1)O[Si]1(O[Si](C)(C)CCCN(c2ccccc2)c2ccccc2)n2c3c4ccccc4c2N=C2N=C(N=c4c5ccccc5c(n41)=NC1=NC(=N3)c3ccccc31)c1ccccc12` [Pc 159, SiPc[OSi(CH3)2(CH2)3N(C6H5)2]2]: the “decomp (%)” value in data set [2] (setting [7]) is listed as 0%; in data set [2] (setting [8]), 0%; in data set [2] (setting [9]), 0%; in data set [2] (setting [10]) it was 0%; in data set [2] (setting [11]), 1%. The “photostability (in words)” value in data set [2] (no added alkene) is reported as “quite stable under light”.

The record behind these values is US20120323164A1, “PHOTODYNAMIC THERAPY WITH PHTHALOCYANINES AND RADICAL SOURCES” (Case Western Reserve University, priority 2011, published 2012).
